Test results published in article PMC6943578, “Isolation of Novel ACE-Inhibitory and Antioxidant Peptides from Quinoa Bran Albumin Assisted with an In Silico Approach: Characterization, In Vivo Antihypertension, and Molecular Docking” (Molecules, 2019).
Like-named read-outs stand apart in the source and are kept apart here. Values belong to the compound of their own block, whether it stands above or below them. Where a SMILES comes first, the peptide text is derived from it.

How the values were obtained:
ACE = system: ACE; design: method as in 2 sources, one per row (each row's own in cited_ref): ref 6 = [6]; PMID 28317757; doi:10.1016/j.foodchem.2017.02.039; 6. Lee S.Y. Hur S.J. Antihypertensive peptides from animal products, marine organisms, and plants Food Chem. 2017 228 506 517 10.1016/j.foodchem.2017.02.039 28317757 ||| ref 25, 30, 31 = [25]; PMID 30229250; doi:10.1039/C8FO00569A; 25. Ling Y. Sun L.P. Zhuang Y.L. Preparation and identification of novel inhibitory angiotensin-I-converting enzyme peptides from tilapia skin gelatin hydrolysates: inhibition kinetics and molecular d || [30]; doi:10.1016/j.lwt.2018.12.059; 30. Bhaskara B. Ananthanarayana L. Jamdar S. Purification, identification, and characterization of novel angiotensin I converting enzyme (ACE) inhibitory peptides from alcalase digested horse gram flo || [31]; doi:10.1016/j.lwt.2016.08.047; 31. Wang X. Chen H. Fu X. Li S. Wei J. A novel antioxidant and ACE inhibitory peptide from rice bran protein: Biochemical characterization and molecular docking study LWT-Food Sci. Technol. 2017 75 93; settings: peptides from tilapia skin gelatin, horse gram protein, rice bran protein; read-out: IC50 of ACE-inhibitory activity; cited from earlier work
From the text: With the help of databases AHTPDB and BIOPEP, and based on the similarity to the already reported ACE-inhibitory and antioxidant peptides, three peptides, namely […]

[1] = cited from earlier work
From the text: The presence of some metal ions like Fe^2+ and Cu^2+ can extremely accelerate the oxidative chain reaction of oil and induce the production of more various radicals. […] It was pointed out that amino acid residues such as Pro, Phe, and Arg in the side chain could act a ...

ACE (from rabbit lung) = target: T1, ACE (from rabbit lung) (Oryctolagus cuniculus, UniProt P12822); assay: ACE-inhibitory activity, HHL substrate, spectrophotometric; assay type: biochemical; settings: synthetic peptide, 37 °C, 1 h, absorbance at 228 nm, from regression of % inhibition vs concentration, repeated at least three times
T1 construct: ACE (from rabbit lung) were purchased from Sigma-Aldrich Co; purchased Sigma-Aldrich Co; host or cells: rabbit lung tissue
T1 sequence (P12822 34-1310): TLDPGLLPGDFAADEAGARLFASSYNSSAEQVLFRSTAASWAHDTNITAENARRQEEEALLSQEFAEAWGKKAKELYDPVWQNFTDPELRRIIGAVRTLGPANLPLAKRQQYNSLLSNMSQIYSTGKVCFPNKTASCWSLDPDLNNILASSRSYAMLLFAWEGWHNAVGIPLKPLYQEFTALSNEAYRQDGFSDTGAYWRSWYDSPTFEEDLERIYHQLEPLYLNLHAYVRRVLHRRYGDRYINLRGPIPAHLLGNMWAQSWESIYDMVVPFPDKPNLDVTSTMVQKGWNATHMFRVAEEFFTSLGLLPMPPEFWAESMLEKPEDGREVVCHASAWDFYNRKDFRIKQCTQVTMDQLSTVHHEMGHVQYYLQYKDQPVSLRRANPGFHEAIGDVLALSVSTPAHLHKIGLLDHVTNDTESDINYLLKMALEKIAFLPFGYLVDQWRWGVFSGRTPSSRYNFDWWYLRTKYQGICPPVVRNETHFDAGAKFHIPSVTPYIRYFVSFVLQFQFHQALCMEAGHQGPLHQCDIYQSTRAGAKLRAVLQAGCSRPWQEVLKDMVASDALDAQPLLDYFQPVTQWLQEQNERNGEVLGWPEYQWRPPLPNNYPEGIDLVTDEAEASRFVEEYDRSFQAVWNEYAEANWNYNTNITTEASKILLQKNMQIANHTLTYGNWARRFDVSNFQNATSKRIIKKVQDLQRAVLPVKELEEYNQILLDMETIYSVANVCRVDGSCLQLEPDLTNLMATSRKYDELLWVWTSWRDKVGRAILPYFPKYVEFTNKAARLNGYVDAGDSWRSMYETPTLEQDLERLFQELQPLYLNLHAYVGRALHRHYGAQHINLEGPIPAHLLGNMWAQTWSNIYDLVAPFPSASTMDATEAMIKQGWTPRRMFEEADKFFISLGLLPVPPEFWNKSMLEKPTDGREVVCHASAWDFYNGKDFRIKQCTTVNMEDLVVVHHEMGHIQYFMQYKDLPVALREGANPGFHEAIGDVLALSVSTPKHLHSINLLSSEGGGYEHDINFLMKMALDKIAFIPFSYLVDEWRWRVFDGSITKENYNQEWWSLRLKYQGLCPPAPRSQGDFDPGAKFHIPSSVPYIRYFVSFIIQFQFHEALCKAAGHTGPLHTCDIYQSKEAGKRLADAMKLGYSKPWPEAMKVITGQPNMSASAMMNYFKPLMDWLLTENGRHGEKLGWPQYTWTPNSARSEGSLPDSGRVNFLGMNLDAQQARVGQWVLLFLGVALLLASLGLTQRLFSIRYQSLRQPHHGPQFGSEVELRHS
Procedure: The ACE-inhibitory activity was evaluated using HHL as a substrate by monitoring the released hippuric acid using a spectrophotometric method. Briefly, the reaction system comprised 50 µL of ACE (25 mU), 150 µL of 8.3 mM HHL, and 50 µL of sample solutions. After incubation in a shaking water bath (37 °C) for 1 h, 1 M HCl (250 µL) was added to stop the reaction. The hippuric acid formed was subsequently extracted by 1.4 mL ethyl acetate. After centrifugation, 1 mL of the supernatant was collected and evaporated at 80 °C for 60 min in a vacuum. The residue was then dissolved in 2 mL of distilled water and the absorbance at 228 nm was read. The inhibitory activity was calculated as follows:(1) ACE inhibition % = 1− AS/AC ×100, where AC is the absorbance of the ACE solution without an inhibitor and AS is the absorbance of the mixture-contained samples. The IC50 value, the inhibitor concentration required to inhibit half the ACE activity, was acquired by nonlinear regression from a plot of percentage ACE inhibition versus different inhibitor concentrations.

[2] = system: spontaneously hypertensive rats (SHRs); assay: Body weight of SHRs during administration; assay type: in vivo, rat; settings: oral 50, 100, 150 mg/kg once daily, five weeks; p > 0.05
Procedure: Following the method indicated by Zou et al. [26] with some modifications, 20 male SHRs (10 weeks, 230 ± 20 g body weight (bw)) were purchased from Vital River Laboratory Animal Technology Co., Ltd (Beijing, China). After conditioning for one week, the rats were divided into five groups of four rats each. […] High dosage group (150 mg/kg body weight once daily), middle dosage group (100 mg/kg body weight once daily), and low dosage group (50 mg/kg body weight once daily) were orally given the peptide dissolved in 0.9% saline solution via gastric intubation. All of the treatments were conducted for five consecutive weeks. Each week, the systolic blood pressure (SBP) and diastolic blood pressure (DBP) of the rats were measured with a non-invasive blood-pressure apparatus (BP-300A Non-Invasive Blood Pressure Monitoring System, Chengdu, China). The body weight and heart rate of the rats were determined at the same time. At least five readings were recorded and averaged out.

[3] = read-out: ABTS·+ scavenging ability IC50; cited from earlier work
From the text: ABTS·^+ scavenging activity represents the total antioxidant activity of potential antioxidants. […] Moreover, the presence of hydrophobic amino ...

Compound: VGLPNSR
IC50 (ACE): 80.9 µM

Compound: Leu-Ala-Arg-Leu [literature peptide from tilapia gelatin]
Fe2+ chelating ability ([1]; at 1 mg/mL, peptide from tilapia gelatin): 46.53%

IC50 (ACE (from rabbit lung)): 38.2 µM
Compound: CC[C@H](C)[C@H](NC(=O)[C@@H](NC(=O)[C@H](CCC(N)=O)NC(=O)CNC(=O)[C@@H](N)CCCNC(=N)N)C(C)C)C(=O)N[C@@H](Cc1ccc(O)cc1)C(=O)N[C@H](C(=O)N[C@@H](CC(C)C)C(=O)O)C(C)C (H-RGQVIYVL-OH)
Side effect on SHRs (heart rate and body weight vs negative control) [2]: no obvious side effect

Compound: VTSLDLPVLRW [literature antioxidant peptide]
IC50 [3]: 661 µM

Compound: YYIVS [literature peptide from sweet potato protein]
Fe2+ chelating ability ([1]; at 3 mg/mL, peptide from sweet potato protein): 59.74%

Compound: HPLDSLCL [literature antioxidant peptide]
IC50 [3]: 74.4 µM

Compound: QLLLQQ
IC50 (ACE): 75 µM
